Patent publication US12617771B2, “Diphenylpyrazole compound, and preparation method therefor and application thereof” (NORTHWEST A&F UNIVERSITY, priority 2021, dated 2026)

How the values were obtained:
[1] = system: resistant strains of Plutella xylostella; assay: Insecticidal synergistic activity with indoxacarb, leaf dip, resistant strains (Huizhou); assay type: in vivo; settings: for Resistance ratio to indoxacarb: 48 hours
Procedure: Experiment: 95% indoxacarb (Ind) original drug was prepared into mother liquor with a concentration of 50000 mg/L. During the test, 6 treatment solutions with concentrations of 500, 250, 125, 62.5, 31.25 and 15.63 mg/L were prepared. 200 mg/L of the compounds PXG1, PXG2 and PXG22 of the present invention were added to each treatment solution, 200 mg/L of diethyl maleate (DEM) was used as the control synergist, and water was used as another control. The Plutella xylostella (Linnaeus) larvae was collected from a vegetable field in Huizhou city, Guangdong Province. Healthy 3rd instar larvae of the same age were selected for indoor biological activity assay.
Clean wild cabbage leaves were cut into discs with a diameter of 6.5 cm (avoiding main veins). The leaves were soaked in the pesticide solution for 10 seconds, then taken out, dried at 25° C., and placed in a petri dish with a diameter of 6.5 cm. 10 larvae of the resistant strains of Plutella xylostella at the early stage of 3rd instar were placed in each petri dish, which was covered with double-layer absorbent roll paper, and covered by the upper cover of the petri dish. It was placed face up in an incubator at a temperature of 25±1° C., a relative humidity of 65%-70%, and a light ratio (L:D) of 16: 8 h. Each treatment was replicated 4 times with 10 larvae per replicate. […] The test process is strictly in accordance with the standard: NY/T 1154.7-2006.
Experimental data analysis was carried out using practical statistical analysis and its computer processing platform (DPS) (TANG Qiyi et al., 1997). The toxicity regression equation of each agent was established, LC50 value and 95% confidence limit were calculated.

[2] = biological target: PxGSTδ1 (Plutella xylostella, UniProt D7URW9); assay: Inhibition of PxGSTδ1 recombinant protein; assay type: biochemical; settings: read-out: 100 μM Inhibition rate %
Procedure: (§1) Experiment: 100 μL of PBS buffer (100 mM, pH 7.2) was taken and added to a 96-well plate, 1 μg of PxGSTs recombinant protein and an appropriate concentration of the compounds PXG1-PXG29 of the present invention were added to each well, after uniformly mixing, and allowed to stand at 30° C. for 10 min. Then 100 μL of PBS buffer (100 mM, pH 7.2) containing 1 mM CDNB and 1 mM GSH was successively added to each well. Immediately after mixing, the mixture was placed in a microplate reader to measure the absorbance at a wavelength of 340 nm (A340) once every 1 min, the measurement was continued for 5 min, the light absorption values of each measuring point were recorded and the inhibition rate in vitro of the compounds PXG1-PXG29 of the present invention with different concentrations against PxGSTs recombinant protein were calculated. Each group of assays was repeated three times, and PxGSTs recombinant protein inactivated at 100° C. for 5 min was used as negative control, and GTX was used as positive control. GraphPad Prism 5 software was used for analysis and calculation of IC50. Relative inhibition was calculated using the following formula:
(§2) [formula] • wherein, A340c is the change of A340 […] the control group, an A340t is the change of A340 within 5 minutes for the experimental group.

[3] = biological target: PxGSTσ1 (Plutella xylostella, UniProt Q6F436); assay: Inhibition of PxGSTσ1 recombinant protein; assay type: biochemical; settings: read-out: 100 μM Inhibition rate %
Procedure: as §1, §2

[4] = biological target: PxGSTσ2 (Plutella xylostella, UniProt Q6F443); assay: Inhibition of PxGSTσ2 recombinant protein; assay type: biochemical; settings: read-out: 100 μM Inhibition rate %
Procedure: as §1, §2

[5] = biological target: PxGSTε3 (Plutella xylostella, UniProt O77409); assay: Inhibition of PxGSTε3 recombinant protein; assay type: biochemical; settings: read-out: 100 μM Inhibition rate %
Procedure: as §1, §2

[6] = biological target: Plutella xylostella GSTs; assay: Inhibition of total GSTs enzyme of Plutella xylostella (CDNB method); assay type: biochemical
Procedure: (§3) Experiment: About 50 mg of larvae/nymphs of nine major pests such as Plutella xylostella, Mythimna separata, Pyrausta nubilalis, Chilo suppressalis, Nilaparvata lugens, Spodoptera frugiperda, Helicoverpa armigera, Carposina sasakii, Spodoptera litura were taken, grounded in a mortar pre-cooled at −80° C., and then 1 mL of 100 mM sodium phosphate buffer (1 mM EDTA, pH 7.2) was added and fully homogenized. The homogenate was transferred to a 1.5 mL centrifuge tube at 4° C., and centrifuged at 14,000 g for 30 minutes, and the supernatant was transferred to a new centrifuge tube as the GSTs total enzyme. The protein concentrations of the above total enzymes were determined using the BCA method.
(§4) 100 μL of PBS buffer (100 mM, pH 7.2) containing 1 mM GSH was taken and placed in a 96-well plate, 5 μg of insect total GSTs enzymes and an appropriate concentration of compounds PXG1-PXG29 (29 compounds) of the present invention were added to each well, after uniformly mixing, and allowed to stand at 30° C. for 10 min. Then 100 μL of PBS buffer (100 mM, pH 7.2) containing 1 mM CDNB was added to each well. Immediately after mixing, the mixture was placed in a microplate reader to measure the absorbance at a wavelength of 340 nm (A 340) once every 1 min, the measurement was carried out continuously for 5 min, the light absorption values of each measuring point were recorded and the inhibition rate in vitro of the compounds with different concentrations against insects total GSTs enzymes were calculated. Each group of assays was repeated three times, and total GSTs enzymes inactivated at 100° C. for 5 min were used as negative controls, and GTX was used as positive controls. GraphPad Prism 5 software was used for analysis and calculation of IC50. Relative inhibition was calculated using the following formula:
(§5) [formula] • wherein, A340 is the change of A340 within 5 minutes for the control group, and A340t is the change of A340 within 5 minutes for the experimental group.

[7] = biological target: Carposina sasakii GSTs; assay: Inhibition of total GSTs enzyme of Carposina sasakii (CDNB method); assay type: biochemical
Procedure: as §3, §4, §5

[8] = biological target: Spodoptera litura GSTs; assay: Inhibition of total GSTs enzyme of Spodoptera litura (CDNB method); assay type: biochemical
Procedure: as §3, §4, §5

[9] = biological target: Mythimna separata GSTs; assay: Inhibition of total GSTs enzyme of Mythimna separata (CDNB method); assay type: biochemical
Procedure: as §3, §4, §5

[10] = biological target: Pyrausta nubilalis GSTs; assay: Inhibition of total GSTs enzyme of Pyrausta nubilalis (CDNB method); assay type: biochemical
Procedure: as §3, §4, §5

[11] = biological target: Chilo suppressalis GSTs; assay: Inhibition of total GSTs enzyme of Chilo suppressalis (CDNB method); assay type: biochemical
Procedure: as §3, §4, §5

[12] = biological target: Nilaparvata lugens GSTs; assay: Inhibition of total GSTs enzyme of Nilaparvata lugens (CDNB method); assay type: biochemical
Procedure: as §3, §4, §5

[13] = biological target: Spodoptera frugiperda GSTs; assay: Inhibition of total GSTs enzyme of Spodoptera frugiperda (CDNB method); assay type: biochemical
Procedure: as §3, §4, §5

[14] = biological target: Helicoverpa armigera GSTs; assay: Inhibition of total GSTs enzyme of Helicoverpa armigera (CDNB method); assay type: biochemical
Procedure: as §3, §4, §5

[15] = indoxacarb alone or with 200 mg/L synergist

PxGSTδ1, sequence (D7URW9 entry or part of it): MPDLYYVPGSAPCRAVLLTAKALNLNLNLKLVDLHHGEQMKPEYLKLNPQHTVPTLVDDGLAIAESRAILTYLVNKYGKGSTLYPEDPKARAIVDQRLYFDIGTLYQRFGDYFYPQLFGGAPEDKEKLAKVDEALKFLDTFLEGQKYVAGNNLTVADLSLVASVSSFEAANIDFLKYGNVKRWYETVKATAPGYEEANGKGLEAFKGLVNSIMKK
PxGSTσ2, sequence (Q6F443 entry or part of it): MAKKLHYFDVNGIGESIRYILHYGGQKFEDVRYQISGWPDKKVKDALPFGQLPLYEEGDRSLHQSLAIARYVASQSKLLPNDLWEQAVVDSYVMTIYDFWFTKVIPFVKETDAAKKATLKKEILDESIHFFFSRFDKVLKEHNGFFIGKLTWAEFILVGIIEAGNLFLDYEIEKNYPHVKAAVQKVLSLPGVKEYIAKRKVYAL
PxGSTσ1, sequence (Q6F436 entry or part of it): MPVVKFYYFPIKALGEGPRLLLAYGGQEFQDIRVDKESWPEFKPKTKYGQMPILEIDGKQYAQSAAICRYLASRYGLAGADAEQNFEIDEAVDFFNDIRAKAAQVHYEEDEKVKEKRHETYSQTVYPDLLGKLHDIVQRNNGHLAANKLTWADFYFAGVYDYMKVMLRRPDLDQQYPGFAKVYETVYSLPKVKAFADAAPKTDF
PxGSTε3, sequence (O77409 entry or part of it): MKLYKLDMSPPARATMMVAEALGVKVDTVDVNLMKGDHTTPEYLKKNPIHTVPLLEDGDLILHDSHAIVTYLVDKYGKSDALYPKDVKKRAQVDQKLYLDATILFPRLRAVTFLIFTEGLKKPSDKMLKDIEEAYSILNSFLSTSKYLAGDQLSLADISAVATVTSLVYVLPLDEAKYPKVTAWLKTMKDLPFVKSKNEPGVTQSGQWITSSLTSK

inhibition at 100 µM [2] | inhibition at 100 µM [3] | inhibition at 100 µM [4] | inhibition at 100 µM [5] | IC50 [6] | 100 μM Inhibition rate % [6] | IC50 [7] | 100 μM Inhibition rate % [7] | IC50 [8] | 100 μM Inhibition rate % [8] | IC50 [9] | 100 μM Inhibition rate % [9] | IC50 [10] | 100 μM Inhibition rate % [10] | IC50 [11] | 100 μM Inhibition rate % [11] | IC50 [12] | 100 μM Inhibition rate % [12] | IC50 [13] | 100 μM Inhibition rate % [13] | SMILES | also measured
82% | 31.7% | 13.5% | -2.47% | > 100 µM | 32.94% | > 100 µM | 13.69% | > 100 µM | 7.95% | > 100 µM | −2.16% | > 100 µM | 23.84% | > 100 µM | 23.00% | > 100 µM | 45.31% | > 100 µM | 28.67% | COc1ccccc1OCC(=O)NNC(=O)c1cc(-c2ccccc2)nn1-c1ccccc1 [PXG18, N′-(1,3-diphenyl-1H-pyrazol-5-yl-carbonyl)-2-(2-methoxyphenoxy)acetohydrazide] | IC50 [14]: > 100 µM; 100 μM Inhibition rate % [14]: −3.02%
58.7% | 45.9% | 32.5% | 5.57% | > 100 µM | 23.03% | > 100 µM | 19.42% | > 100 µM | 31.70% | > 100 µM | 47.16% | > 100 µM | 15.64% | > 100 µM | 22.03% | > 100 µM | 10.00% | > 100 µM | 19.64% | N#Cc1ccc(OCC(=O)NNC(=O)c2cc(-c3ccccc3)nn2-c2ccccc2)cc1 [PXG19, 2-(4-cyanophenoxy)-N′-(1,3-diphenyl-1H-pyrazol-5-yl-carbonyl)acetohydrazide] | IC50 [14]: > 100 µM; 100 μM Inhibition rate % [14]: 6.30%
77.7% | 35.9% | 26.9% | 6.04% | > 100 µM | 26.35% | > 100 µM | 19.76% | > 100 µM | 12.89% | > 100 µM | 22.92% | > 100 µM | 15.55% | > 100 µM | 22.83% | > 100 µM | 24.74% | > 100 µM | 22.33% | N#Cc1ccccc1OCC(=O)NNC(=O)c1cc(-c2ccccc2)nn1-c1ccccc1 [PXG23, 2-(2-cyanophenoxy)-N′-(1,3-diphenyl-1H-pyrazol-5-yl-carbonyl)acetohydrazide] | IC50 [14]: > 100 µM; 100 μM Inhibition rate % [14]: 0.43%

The next lines start with the molecule.

SMILES | inhibition at 100 µM [2] | inhibition at 100 µM [3] | inhibition at 100 µM [4] | inhibition at 100 µM [5] | IC50 [6] | 100 μM Inhibition rate % [6] | IC50 [7] | 100 μM Inhibition rate % [7] | IC50 [8] | 100 μM Inhibition rate % [8] | IC50 [9] | 100 μM Inhibition rate % [9] | IC50 [10] | 100 μM Inhibition rate % [10] | IC50 [11] | 100 μM Inhibition rate % [11] | IC50 [12] | 100 μM Inhibition rate % [12] | IC50 [13] | 100 μM Inhibition rate % [13] | also measured
COC(=O)N(C(=O)N1CO[C@@]2(C(=O)OC)Cc3cc(Cl)ccc3C2=N1)c1ccc(OC(F)(F)F)cc1 [Ind, Indoxacarb, reference compound] | – | – | – | – | – | – | – | – | – | – | – | – | – | – | – | – | – | – | – | – | LC50 of indoxacarb ([1]; indoxacarb alone or with 200 mg/L synergist, 3rd instar larvae, mortality after 48 hours): 74.72 µg/mL; Resistance ratio to indoxacarb [1, 15]: 143.70
Cc1csc(CC(=O)NNC(=O)c2cc(-c3ccccc3)nn2-c2ccccc2)n1 [PXG2, N′-[2-(4-methyl-1,3-thiazol-2-yl)acetyl]-1,3-diphenyl-1H-pyrazol-5-yl-carbohydrazide] | 87.8% | 25.1% | 14.6% | -4% | – | – | – | – | – | – | – | – | – | – | – | – | – | – | – | – | LC50 of indoxacarb ([1]; in vivo): 39.93 µg/mL; Resistance ratio to indoxacarb [1, 15]: 76.78
O=C(CC12C[C@H]3C[C@H](C1)C[C@@H](C2)C3)NNC(=O)c1cc(-c2ccccc2)nn1-c1ccccc1 [PXG26, N′-(1,3-diphenyl-1H-pyrazol-5-yl-carbonyl)-2-[(3r)-adamantan-1-yl]acetohydrazide] | 21.6% | 67.9% | 24.7% | 7.12% | > 100 µM | 25.09% | > 100 µM | 18.11% | > 100 µM | 15.89% | > 100 µM | 42.48% | > 100 µM | −0.99% | > 100 µM | 17.07% | > 100 µM | 28.56% | > 100 µM | 16.01% | IC50 [14]: > 100 µM; 100 μM Inhibition rate % [14]: 24.75%
CN(C)S(=O)(=O)c1ccc(C(=O)NNC(=O)c2cc(-c3ccccc3)nn2-c2ccccc2)cc1 [PXG29, 4-[N′-(1,3-diphenyl-1H-pyrazol-5-yl-carbonyl) hydrazinocarbonyl]-N,N-dimethyl phenyl-1-sulfonamide] | 16.7% | 53.3% | 44.7% | 0.03% | > 100 µM | 9.32% | > 100 µM | 33.57% | > 100 µM | 4.60% | > 100 µM | 4.90% | > 100 µM | 10.83% | > 100 µM | 13.81% | > 100 µM | −10.71% | > 100 µM | 4.82% | IC50 [14]: > 100 µM; 100 μM Inhibition rate % [14]: 10.99%
